# In US5134137A, “Cephalosporin antibiotics” (The Upjohn Company, priority 1990, dated 1992):
# Like-named read-outs stand apart in the source and are kept apart here.
# What was measured:
# Pasteurella hemolytica = assay: MIC (minimum inhibitory concentration), agar dilution, Pasteurella hemolytica; format: cell-based; details: Pasteurella, read-out: MIC
# How it was run: (§1)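 Each organism receives an inoculum of approx. 10^3–10^4 CFU, taken from a 5% CO2 BHI subculture standardised to 0.5 McFarland and diluted 1:20. It is spotted on Mueller-Hinton agar containing the compound, then incubated for 16–18 h at 37 °C with CO2.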
# [1] = tested on: Bordetella bronchiseptica; assay: MIC, agar dilution, Bordetella bronchiseptica; format: cell-based; details: Bordetella bronchiseptica, read-out: MIC
# How it was run: as §1
# Strep. faecalis = assay: MIC, agar dilution, Strep. faecalis; format: cell-based; details: Enterococcus faecalis
# Experimental: Stock solution of each test antibiotic compound were prepared to have a concentration of 2 mg. of the test compound per milliliter in sterile water of 0.1M ammonium acetate solution. The amount of each compound used was adjusted for base compound activity as calculated from the purity data for the selected batch of compound.
# The dilution procedure described by Washington and Sutter [Manual of Clinical Microbiology, 3rd, Edit. (Lennett, E. H. et al, Eds.), pp. 453-458 (1980), American Society for Microbiology, Washington, D.C.] was modified so that serial concentrations of 128 to 0.0625 microgram/ml. in sterile water was obtained. Then 1.5 ml. aliquots of these test antibiotic dilution mixtures are added to 13.5 molten (50° C.) Mueller-Hinton agar. Each resulting mixture is poured into 15×100 mm, sterile Petri plates and allowed to dry at room temperature overnight.
# Test bacterial cultures are maintained at -70° C. on glass beads. [See R. J. Yancey, Jr. et al, Amer. Jr. of Vet. Research, 48, No. 7, pp. 1050-1053, (1987)]. At least one bacteria-laden bead per culture is dropped into one ml. of brain heart infusion (BHI) broth for overnight culture at 37° C. in 5% V/V carbon dioxide in air atmosphere.
# On the data of assay, 2 to 8 drops of the bacterial broth cultures are transferred to fresh BHI broth (1 ml.) and the mixture is incubated for 4 to 6 hours at 37° C. in a 5% V/V carbon dioxide in air atmosphere. The resulting cultures are then diluted to match a 0.5 MacFarland standard and further diluted 1:20 V/V with sterile saline solution.
# A 0.001 ml. drop of the resulting mixture, containing approximately 10^3 to 10^4 colony forming units (CFU) of each test bacteria organism, is dispensed onto the surface of the test antibiotic compound test plates with a Steer's type replicator. The resulting innoculated plates are incubated 16 to 18 hours at 37° C. with a carbon dioxide atmosphere.
# Corynebacterium pyogenes = assay: MIC, agar dilution, Corynebacterium pyogenes; format: cell-based; details: strain 213-2; read-out: MIC
# How it was run: as §1
# Salmonella typhimurium = assay: Systemic infection model in mice, ED50, Salmonella typhimurium; format: in vivo; details: Salmonella enterica, 144 h, 50% survival six days post infection, per day, read-out: ED50 (95% confidence limits)
# Experimental: Experimental Infections and Antitiotic Treatment (for ED50 in mice tests).
# Mice are infected and treated with the test antibiotic compound according to procedures described previously [Yancey, Jr., R. J. et at. supra].
# The test antibiotic compound is administered subcutaneously immediately following infection, then at 24 hours and 48 hours post infection. The medium effective dose (ED50) number is determined for all infections. The ED50 value is defined as the calculated concentration of the test antibiotic compound in mg. of compound per kilogram of mouse body weight per day at which 50% of the animals survived six days post infection.
# [2] = Stability of the compound; format: physicochemical
# [3] = Serum half life / duration of antibiotic action
# Micrococcus luteus = assay: MIC, agar dilution, Micrococcus luteus; format: cell-based; details: Micrococcus luteus; strain UC130; read-out: MIC
# How it was run: as §1
# [4] = TYPHIMURIUM / UC6162, sc, strain UC6162, subcutaneous, 0, 24, 48 hours post infection
# [5] = TYPHIMURIUM / UC6164, sc, strain UC6164, lactamase producing, subcutaneous, 0, 24, 48 hours post infection
smiles,measurement,setting,value
"CO/N=C(\C(=O)N[C@@H]1C(=O)N2C(C(=O)O)=C(CS)CS[C@H]12)c1csc(N)n1 [Formula III compound, 3-mercaptomethyl-7β-[2-(2-amino-1,3-thiazol-4-yl)-(Z)-2-(methoxyimino)acetamido]ceph-3-em-4-carboxylic acid]",MIC,Pasteurella hemolytica; strain B77-19,≤ 0.06 µg/mL
same,MIC,Pasteurella hemolytica; strain UC6531,≤ 0.06 µg/mL
same,MIC,Pasteurella hemolytica; strain UC6532,≤ 0.06 µg/mL
same,MIC,[1]; strain UC3287,> 32 µg/mL
same,MIC,[1]; strain UC6313,> 32 µg/mL
same,MIC,Strep. faecalis; strain ATCC29212,> 32 µg/mL
same,MIC,Strep. faecalis; strain UC241,> 32 µg/mL
same,MIC,Strep. faecalis; strain UC694,> 32 µg/mL
same,MIC,Corynebacterium pyogenes,0.25 µg/mL
same,ED50,Salmonella typhimurium; [4],0.3 mg/kg
same,ED50,Salmonella typhimurium; [5],0.5 mg/kg
same,stability in alkaline solution,[2]; alkaline solution,decomposes quickly
same,stability in the dry state,"[2]; dry state, white powder",stable in the dry state
same,stability in strongly acidic media,[2]; strongly acidic media,"converted to the 3,4-thio-lactone derivative"
same,duration of antibiotic action,[3]; compared with ceftiofur,biologically longer acting as an antibiotic than ceftiofur
same,serum half life,[3]; inferred from results against Salmonella typhimurium,longer serum half life
"CO/N=C(\C(=O)N[C@@H]1C(=O)N2C(C(=O)O)=C(CSC(=O)c3ccco3)CS[C@H]12)c1csc(N)n1 [ceftiofur, 7-[2-(amino-1,3-thiazol-4-yl)-2-(methoxyimino)acetamido]-3-[(fur-2-ylcarbonyl)thiomethyl]-3-cephem-4-carboxylic acid, reference compound]",MIC,Pasteurella hemolytica; strain B77-19,≤ 0.06 µg/mL
same,MIC,Pasteurella hemolytica; strain UC6531,≤ 0.06 µg/mL
same,MIC,Pasteurella hemolytica; strain UC6532,≤ 0.06 µg/mL
same,MIC,[1]; strain UC3287,> 32 µg/mL
same,MIC,[1]; strain UC6313,> 32 µg/mL
same,MIC,Strep. faecalis; strain ATCC29212,32 µg/mL
same,MIC,Strep. faecalis; strain UC241,> 32 µg/mL
same,MIC,Strep. faecalis; strain UC694,> 32 µg/mL
same,MIC,Corynebacterium pyogenes,< 0.06 µg/mL
same,MIC,Micrococcus luteus,0.25 µg/mL
same,ED50,Salmonella typhimurium; [4],0.4 mg/kg
same,ED50,Salmonella typhimurium; [5],0.5 mg/kg
"CO/N=C(\C(=O)N[C@@H]1C(=O)N2C(C(=O)O)=C(CO)CS[C@H]12)c1csc(N)n1 [desacetyl cefotoxime, 7-[2-(2-amino-1,3-thiazol-4-yl)-(syn)-2-methoxyiminoacetamido]-3-hydroxymethylceph-3-em-4-carboxylic acid, reference compound]",MIC,Pasteurella hemolytica; strain B77-19,≤ 0.06 µg/mL
same,MIC,Pasteurella hemolytica; strain UC6531,≤ 0.06 µg/mL
same,MIC,Pasteurella hemolytica; strain UC6532,≤ 0.06 µg/mL
same,MIC,[1]; strain UC3287,> 32 µg/mL
same,MIC,[1]; strain UC6313,> 32 µg/mL
same,MIC,Strep. faecalis; strain ATCC29212,> 32 µg/mL
same,MIC,Strep. faecalis; strain UC241,> 32 µg/mL
same,MIC,Strep. faecalis; strain UC694,> 32 µg/mL
same,MIC,Corynebacterium pyogenes,0.25 µg/mL
same,ED50,Salmonella typhimurium; [4],0.8 mg/kg
same,ED50,Salmonella typhimurium; [5],1 mg/kg
